Laboratory results published in patent US20220125746A1, “METHOD OF PREVENTING OR TREATING TREATMENT-INDUCED GASTROINTESTINAL INJURY” (priority 2019, published 2022).
Counter-ions that a name gives are not always drawn.

Assays:
[1] = test system: primary human colonic organoids; test: Human colonic organoids treated with CPT; assay type: cell-based; conditions: PUMAi 50 uM
Description: (§1) Fresh mucosal scrapings from 10 cm of jejunum were washed in cold PBS, resuspended in 700 ul of RNA lysis buffer, and homogenized in a Dounce homogenizer. RNA was isolated using the Quick-RNA MiniPrep kit (Zymo Research) according to the manufacturer's instructions. Organoids were freed from Matrigel using Cell Recovery Solution (Corning), as described in, before RNA isolation. Complementary DNA was generated from 2 ug of total RNA from mice or ˜100 ng of total RNA from colonic organoids and was pooled from three mice or three wells of organoid culture per treatment group using SuperScript III reverse transcriptase (Invitrogen) and random primers. Gene expression was normalized to Gapdh. Representative results are shown, and similar results were obtained in at least three independent experiments. Details on mouse and human primers are found in Tables 1 and 2.
Surgically resected intestinal tissues were obtained from Health Science Tissue Bank (HSTB) of UPMC Shadyside Hospital and UPMC Presbyterian Hospital. All samples were obtained with informed consent and approval by the University of Pittsburgh Ethics Committee. Human normal colon crypt isolation and organoid development were performed as previously described with modifications. The complete culture medium for normal human colon organoids contains advanced DMEM/F12 (12634-010, Invitrogen) supplemented with 1× penicillin/streptomycin (15140-122, Invitrogen), 10 mM HEPES (15630-106, Invitrogen), 2 mM GlutaMAX (Invitrogen), 1× B27 (17504-044, Invitrogen), 1XN2 (17502-048, Invitrogen), 1 mM N-Acetylcysteine (A0737, Sigma), 10 nM [leu-15]-Gastrin (G9145, Sigma), 10 mM nicotinamide (N0636, Sigma), 10 μM SB202190 (S7067, Sigma), 50 ng/ml recombinant murine EGF (315-09, Peprotech), 0.5 μM A83-01 (2939, Tocris Bioscience), 10 nM PGE2 (22-961-0, Tocris Bioscience), and 50% WRN-conditioned medium (vol/vol). Freshly isolated crypts were cultured with the same medium plus 10 μM Y-27632 and 100 μg/ml Primocin. Organoids 100 p.m or greater in diameter were enumerated on day 6 after CPT treatment. […]

mouse colonic organoids = test: Mouse colonic organoids treated with CPT; assay type: cell-based; conditions: PUMAi 50 uM
Description: as §1
Mouse crypt isolation, organoid development, and passage were done as previously described with minor modifications. In brief, the complete culture medium for mouse intestinal organoids was slightly modified as follows: advanced Dulbecco's modified Eagle medium (DMEM)/F12 (12634-010, Invitrogen) was supplemented with 100 units/ml penicillin/0.1 mg/ml streptomycin (Invitrogen), 2 mM GlutaMAX (ThermoFisher), 20% (vol/vol) FBS (S11150, ATLANTA Biologicals), and WRN-conditioned medium (50%, vol/vol). Freshly isolated crypts were cultured with the same medium plus 10 μM Y-27632 (Y0503 Sigma) and 100 μg/ml Primocin (ant-pm-1, InvivoGen). For CPT and PUMAi treatment, intestinal organoids were passaged and re-plated in 25 μL of Matrigel (356231, Corning) in 24-well plates 24 hours before treatment with CPT (0.5 μM, C9911, Sigma-Aldrich) and PUMAi (50 μM) for 24 hours. The CPT-containing medium was replaced with complete medium containing PUMAi (50 μM). Three groups (treatment control, CPT only, and CPT plus PUMAi) were set up. Organoids 100 μm or greater in diameter were enumerated on day 6 after CPT treatment. Similar results were obtained from at least three independent experiments with triplicate wells in each experiment.

[2] = test system: colon cancer cell line HCT-116; test: PUMA-induced apoptosis inhibition in HCT-116
Description: (§2) PUMAi was added to cells at 25 uM at the same time as CPT.
(§3) A minimum of 300 cells per treatment were analyzed in triplicate.

LGR5+ stem cells = test: LGR5+ stem cells, niche and DNA damage after CPT-11 in mice; assay type: in vivo, mouse
Description: LGR5(GFP)/TUNEL IF. Sections were prepared as described above. […] Sections were then washed in PBS, and TUNEL staining was performed with the ApopTag Fluorescein In Situ Apoptosis Detection Kit (Chemicon) according to the manufacturer's instructions (37, 46).
CD166 IF. Sections were prepared as described above.
p53 BP1 IF: Sections were prepared as described above. […] Sections were then incubated with AlexaFluor-594 goat anti-rabbit secondary antibodies (1:200; A11012; Invitrogen) for 1 hour at room temperature and counterstained with VectaShield plus DAPI.
as §1

BIM/MCL-1 = target: T1, BIM/MCL-1 (Homo sapiens, UniProt O43521); test: Immunoprecipitation of HA-BIM / V5-Mcl-1 from 293 lysates; assay type: binding; conditions: 25 uM, 15 min, anti-HA immunoprecipitation, western blot
T1 construct: expressed in transfected cells; host or cells: 293 cells; lysates used
T1 sequence (O43521 whole entry, species assumed): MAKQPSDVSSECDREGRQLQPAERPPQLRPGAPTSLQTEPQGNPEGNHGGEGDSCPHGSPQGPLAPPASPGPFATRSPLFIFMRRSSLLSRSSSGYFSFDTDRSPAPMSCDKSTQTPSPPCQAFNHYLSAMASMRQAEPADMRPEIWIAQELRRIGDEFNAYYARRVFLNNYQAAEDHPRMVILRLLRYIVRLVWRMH
Description: (FIG. 10A) Structure of the PUMA inhibitor lead compound (PUMAi). (FIG. 10B) Lysates of 293 cells transfected with individual plasmids for 24 hours were mixed in the indicated combinations. Lysates were incubated with vehicle or PUMA inhibitor (PUMAi, 25 μM) for 15 min before immunoprecipitation with an anti-HA antibody. The HA-bound proteins and input were analyzed by western blotting. (FIG. 10C) Lysates of 293 cells transfected with individual plasmids for 24 h were mixed in the indicated combinations. Lysates were incubated with vehicle or PUMA Inhibitor (PUMAi, 25 μM) for 15 min before immunoprecipitation with an anti-HA antibody. The HA-bound proteins and input were analyzed by western blotting. (FIG. 10D) Indicated colon cancer cell lines were treated with camptothecin (CPT, 500 nM) for 24 h. HCT 116 cells and PUMA KO HCT 116 cells have WT p53, others have no (KO) or mutant p53. Apoptosis was measured by nuclear fragmentation assay. Values are mean+SEM; n=3 independent experiments. (FIG. 10E) Cells were treated as in D for 24 h and analyzed by western blotting. Representative results are shown, and similar results were obtained in at least three independent experiments. […]

[3] = test system: colon cancer cell line DLD1; test: PUMA-induced apoptosis inhibition in DLD1
Description: as §2, §3

OCCN1CCN(CC(O)COc2ccc3ccccc3c2)CC1 (centres unmarked) [PUMAi, 1-[4-(2-hydroxyethyl)-1-piperazinyl]-3-(2-naphthyloxy)-2-propanol dihydrochloride]
CPT-induced caspase-3 activation ([1]; 24 h after CPT): inhibited CPT-induced caspase-3 activation
CPT-induced expression of WNT and NOTCH targets ([1]; 24 h after CPT): suppressed CPT-induced expression of WNT and NOTCH targets
organoid growth after CPT ([1]; CPT 500 nM 24 h, day 6): enhanced organoid growth
CPT-induced activation of WNT and NOTCH targets (Lgr5, CD44, Olfm4) (mouse colonic organoids; 24 h after CPT): suppressed CPT-induced activation of WNT and NOTCH targets
CPT-induced growth suppression and caspase-3 activation (mouse colonic organoids; CPT 500 nM 24 h): strongly blocked
Apoptosis inhibition of HCT-116 [2]: 17%
crypt DNA damage by 53BP1 foci (LGR5+ stem cells; 6 hours after single CPT-11 dose, vs control group): comparable
crypt DNA damage by 53BP1 foci (LGR5+ stem cells; 48 hours after a single dose, more so 120 hours after three doses of CPT-11): lower
decrease of CPT-11-induced apoptosis of LGR5+ cells (LGR5+ stem cells; LGR5-EGFP reporter mice, CPT-11 200 mg/kg, PUMAi 10 mg/kg 2 h before): > 70%
suppression of TA marker CD44 mRNA (LGR5+ stem cells; after CPT-11, intestinal mucosa): not by PUMAi
activation of WNT and NOTCH responsive genes (qRT-PCR) (LGR5+ stem cells; as early as 6 hours after CPT-11): largely suppressed
CPT-11-induced expansion of CD166+ cells (LGR5+ stem cells; by 96 hours): fully suppressed
inhibition of BIM/MCL-1 interaction (BIM/MCL-1): not of BIM/MCL-1
Apoptosis inhibition of DLD1 [3]: 39%
